One data set has as its system MCF-7 cancer cells. Nature of the data set: Lysosome inhibition, MBd quantification in MCF-7 cells. The note with it: lysosomal inhibition 22 hours. Format: cell-based. The source says:
(§1) Each dividing cell was considered one cell.

Another data set has as its system HeLa cells. Briefly: Lysosome inhibition, MBd quantification in HeLa cells. The note with it: lysosomal inhibition 22 hours. It counts as cell-based.
From the text: as §1

The subject of another data set is hESCs (H1, H9). Nature of the data set: Lysosome inhibition, MBd quantification in hESCs. The note with it: chloroquine treatment.
The next data set deals with hRPE-1 cells. Briefly: Lysosome inhibition, MBd quantification in hRPE-1 cells. It counts as cell-based. The note with it: lysosomal inhibition 22 hours.
From the text: as §1

Structures are written as SMILES. Entries after “also recorded” stand apart in the source; their conditions may differ.

The results in this text go back to US9409978B2, “Modulation of midbody derivatives” (University of Massachusetts, priority 2011, dated 2016).

From the text for hESCs (H1, H9): Quantification was based on the markers that: 1) labeled both mitotic MBs and MBds (MKLP1, mgcRACGAP, or Cep55); 2) labeled MBs differently than MBds (α-tubulin or Aurora B); 3) defined cell boundaries (α-tubulin or ZO-1). Because Cep55, MKLP1, and mgcRACGAP also label centrioles and spindle midzones, cells were co-stained with centrosome antibody (e.g. 5051), and a size threshold for MB/MBds (1 μm) was introduced to exclude non-MBd structures. Structures with MB-specific or non-MB/MBd labeling were excluded from MBd counts. Cell counts: For hESCs, 5-11 colonies were imaged from triplicates in each experiment. For other cell types, random fields were imaged until n>500 cells. Each dividing cell was considered one cell.
Cells at 70% confluency were incubated with chloroquine (200 μM/PBS; Sigma), E64d+ pepstatin A (E64d/PepA) (10 μg ml^−1/DMSO each; Sigma) (Klionsky et al., 2008, Autophagy, 4:151-175; Komatsu et al., 2007, Cell, 131:1149-63) or solvents alone (controls) for 22 hours before fixation. Lysosome inhibition was confirmed and visualized after 12-hour DQ-Red BSA (10 μg ml^−1; Invitrogen) incubation.

In the case of `CCN(CC)CCCC(C)Nc1ccnc2cc(Cl)ccc12` (stereo not shown) [chloroquine], in the data set on MCF-7 cancer cells, the “percent of MBd+ cells (MBd levels)” value is listed as “largely unaffected; also recorded: no detectable effect” and the “percent of MBds in lysosomes” value is given as “largely unaffected”. Also, in the data set with HeLa cells, the “percent of MBd+ cells (MBd levels)” value is reported as “modest increase; also recorded: increase the percent of MBd+ cells” and the “presence of MBds in lysosomes” value is recorded as “presence of MBds in lysosomes”. In the data set with hESCs (H1, H9), the “effect of treatment on the cells (differentiation, cell death)” value is “caused differentiation and cell death”. The “percent of MBds found within lysosomes” value with hRPE-1 cells (LAMP2 lysosome marker) was “elevated; also recorded: presence of MBds in lysosomes”. For the same compound, the “percent of MBd+ cells (MBd levels)” value with hRPE-1 cells (chloroquine 200 μM or E64d/PepA 10 μg/ml each) is given as “elevated; also recorded: increase the percent of MBd+ cells”.
